The values that follow come from US5800838A, “Composition that inhibits or destroys at least one unicellular living organism containing fluorine F- and Lithium li+” (priority 1987, dated 1998).

For assay [1], the system named is Escherichia coli. Put plainly: Antibiotic activity of ampicillin (Example 24). In kind it is cell-based.
Assay [2] concerns Streptococcus faecalis. Put plainly: Antibiotic activity of ampicillin (Example 24). The note with it: Enterococcus faecalis, read-out: minimal inhibitory concentration. In kind it is cell-based.
In assay [3] the test system is Group C streptococcus. The experiment in a line: Antibiotic activity of ampicillin (Example 24). In kind it is cell-based. The conditions noted are these: read-out: minimal inhibitory concentration.
Assay [4] deals with Pseudomonas aeruginosa. The experiment in a line: Antibiotic activity of ampicillin (Example 24). It counts as cell-based. The conditions noted are these: read-out: minimal inhibitory concentration.
Assay [5] has as its system Haemophilus influenzae. Put plainly: Antibiotic activity of ampicillin (Example 24). It counts as cell-based. The note with it: read-out: minimal inhibitory concentration.
Assay [6] has as its system Staphylococcus aureus. Put plainly: Antibiotic activity of ampicillin (Example 24). The note with it: read-out: minimal inhibitory concentration. It counts as cell-based.
The subject of assay [7] is Entrococcus faecium. The experiment in a line: Antibiotic activity of ampicillin (Example 24). The conditions noted are these: resistant to ampicillin, read-out: minimal inhibitory concentration. It counts as cell-based.
Assay [8] relates to Pseudomonas aeruginosa. The experiment in a line: MIC of antibiotics by microdilution in liquid medium on plates (Example 18). In kind it is cell-based. The conditions noted are these: Pseudomonas aeruginosa, read-out: MIC (average MIC value). Here is the method:
The unicellular living organism chosen for the trials is Pseudomonas aeruginosa (wild-type strain originating from hospital sources).
The same methodology as for Examples 11 and 12 was follows. Bacteriostatic analyses were performed with a number of antibiotics belonging to benzylpenicillins, and aminopenicillins, and first and second generation cephalosporins, namely:
The determination of the MIC was carried out by the microdilution method in liquid medium on plates. Aqueous solutions of each antibiotic are prepared in MUELLER HINION broth, to obtain dilutions in a geometric ratio of 2. The solvent is sterile double-distilled water.
The preparation of the bacterial inoculum is made with a culture of Pseudomonas aeruginosa, with agitation on a water bath at 37° C. for 4 to 6 hours, giving 10^6 bacteria/ml.
Three trials were performed per antibiotic and per bacterial inoculum. The trials were performed first with the antibiotics alone (trials a).sctn., and then with the addition of a dose of 1 mg/l of an aqueous solution of lithium fluoride (trials b).sctn. to the dilution of each one in every cup of every plate.
A general note: In broth dilution the organism is exposed to a series of concentrations in liquid medium.

The test system of assay [9] is Klebsiella pneumonia. Put plainly: Phenotype of resistant wild-type hospital strains with activated antibiotics (Example 35). In kind it is cell-based. The conditions noted are these: Fli 4 ppm. The method, then: (§1) Strains Gram+ and Gram- (wild-type hospital) having a resistant phenotype vis a vis standard firstly and secondly used antibiotherapy were experimented on activated antibiotics.
(§2) 250 experiments were conducted on the following strains: Streptococcus group B, C, D, F, G, Staphylococcus aureus, Staphylococcus epidermitis, Klebsiella pneumoniae, Klebsiella spirochete, Klebsiella oxytoca, Proteus mirabilis, Serratia marcescens, Escherichia coli, Citrobacter freundii, Enterobacter cloacae, Enterobacter calcoaceticus, Salmonella spirochete, Salmonella typhimurium, Pseudomonas aeruginosa, Haemophilus influenzae, Haemophilus sphrophilus, Acinetobacter calcoaeticus. […]

In assay [10] the test system is Pseudomonas aeruginosa. The experiment in a line: MIC of doxycycline (Example 32). It counts as cell-based. The conditions noted are these: alone, or with FNa 8 ppm / Fli 8 ppm. The text has this:
The MIC of doxycycline was studied on pseudomonas aeruginosa (wild-type hospital strain) in the same conditions as for example 31.

Assay [11] relates to Escherichia coli ATCC 25922. Put plainly: Antibiotic activity of patient's blood after administration, inhibition holes methodology. It counts as in vivo. An excerpt: The efficiency in vivo of the administration of doxycycline in presence of Fli has been measured and compared with the efficiency of the administration of doxycycline alone.
The antibiotic composition (doxycycline alone or with Fli) has been administered to a healthy patient, and the antibiotic activity of the patient's blood has been determined before the first administration, the day of the administration, and three days later. The delay of three days is necessary because of the low solubility of Fli: the pertinent concentration of Fli is only obtained after the end of the second day after its administration.
The patient had taken the antibiotic during the three days, 2 capsules of 250 mg each day at 8 a.m. A blood sample was taken 3 hours after each administration.
And the antibiotic activity was twice determined by a microbiological titration using the inhibition holes methodology on a standard strain ATCC 25922 of Escherichia coli.
Holes of […] diameter were made on a Mueller Hinton agar and 100 μl of plasma were injected in each hole. The agar was then seeded with an inoculum of Escherichia coli of […].
After an incubation of 24 hours at 37° C., the diameters around each holes (in which the strain was killed) were read.
In the first trial, the capsules of 250 mg were constituted of 110 mg of doxycycline chlorhydrate and of lactose.
The second trial was conducted similarly with gelules of 250 mg constituted of 110 mg of doxycycline, 53 mg of Fli and lactose.

The subject of assay [12] is Staphylococcus aureus. The note with it: A (tetracycline) in presence of B (Fli).
Description: (§3) Concentration series of two antibiotic substances A and B are prepared in the geometric ratio of 2 are combined and the following values are determined:
(§4) MIC B/A = minimal inhibiting concentration B in presence of A [formula]
(§5) The MIC of the bacteriostatic effect is read when the percentage of surviving strains is less or equal to 1%.
(§6) The combination of the substances A and B is synergistic as regards the bacteriostatic effect when FIC≤0,75. The combination is additive when FIC=1. The combination is insensible when 1<FIC≤2. The combination is antagonistic when FIC>2.
(§7) Substance A was tetracycline (concentration serie from 0,25 to 128 mg/l)
(§8) Substance B was Fli (concentration serie from 0,25 to 16 mg/l)
(§9) The strain was staphylococcus aureus (wild-type hospital resistant strain)
Assay [13] concerns Staphylococcus aureus. Put plainly: microbe, parasite or virus in culture. The conditions noted are these: read-out: MIC alone (MIC A, MIC B).
Description: as §3, §4, §5, §6, §7, §8, §9
Assay [14] relates to Klebsiella pneumoniae. Put plainly: microbe, parasite or virus in culture.
Description: The MIC of tetracycline was studied on Klebsiella pneumoniae (wild-type hospital strain).
The trial was conducted with tetracycline alone, tetracycline in presence of FNa and tetracycline in presence of Fli.
The test system of assay [15] is Haemophilus influenzae.
For assay [16], the system named is Klebsiella pneumoniae.
In assay [17] the test system is streptococcus group F. Put plainly: Phenotype of resistant wild-type hospital strains with activated antibiotics (Example 35). In kind it is cell-based. The conditions noted are these: Fli 4 ppm. Here is the method:
as §1, §2

The subject of assay [18] is Group C streptococcus. Put plainly: Activity on wild-type hospital strains responsible for skin infections. In kind it is cell-based.
The test system of assay [19] is Escherichia coli. Described as above. In kind it is cell-based.
In assay [20] the test system is Staphylococcus aureus. Described as above. In kind it is cell-based.
Setting [21] is: LiF 0.8 mg/l, multiresistant strains often producing beta-lactamase.
Setting [22] is: alone, multiresistant strains often producing beta-lactamase.
Setting [23] is: read-out: 100% inhibitory concentration, alone.

Values after ≈ are worked out from the molar mass of the structure shown. Read-outs that look alike come from different tables or passages of the source. A value given as a limit tells only on which side of the number the result lay.

For the molecule `CC1(C)S[C@@H]2[C@H](NC(=O)[C@H](N)c3ccccc3)C(=O)N2[C@H]1C(=O)O` [AMPICILLIN, ampicillin], the MIC in assay [1] (ATCC25, LiF 1 mg/l, ATCC 25 922, read-out: minimal inhibitory concentration) is 2 µg/mL (≈ 5.72 µM); in assay [1] (ATCC25, alone, ATCC 25 922, read-out: minimal inhibitory concentration), 4 µg/mL (≈ 11.4 µM); in [1] (LiF 0.8 mg/l, multiresistant strains often producing beta-lactamase, read-out: minimal inhibitory concentration) it was 8 µg/mL (≈ 22.9 µM); in assay [1] (LiF 5 mg/l, 10 wild-type strains, read-out: minimal inhibitory concentration), 1 to 4 µg/mL (≈ 2.86 to 11.4 µM); in assay [1] (LiF 5 mg/l, resistant Escherichia coli, read-out: minimal inhibitory concentration) it was 8 µg/mL (≈ 22.9 µM); in [1] (alone, 10 wild-type strains, read-out: minimal inhibitory concentration) it was 2 to 8 µg/mL (≈ 5.72 to 22.9 µM). Moreover, the MIC is 64 µg/mL (≈ 183 µM) in assay [1] (alone, multiresistant strains often producing beta-lactamase, read-out: minimal inhibitory concentration); 64 µg/mL (≈ 183 µM) in [1] (alone, resistant Escherichia coli, read-out: minimal inhibitory concentration); 4 µg/mL (≈ 11.4 µM) in [2] (ATCC25, LiF 5 mg/l, ATCC 25 212); 8 µg/mL (≈ 22.9 µM) in assay [2] (ATCC25, alone, ATCC 25 212); 2 µg/mL (≈ 5.72 µM) in assay [2] (LiF 5 mg/l, 10 wild-type strains); 4 to 8 µg/mL (≈ 11.4 to 22.9 µM) in [2] (alone, 10 wild-type strains). The MIC is 64 µg/mL (≈ 183 µM) in [3] (setting [21]); 8 µg/mL (≈ 22.9 µM) in assay [3] (LiF 1 mg/l); 256 µg/mL (≈ 733 µM) in assay [3] (setting [22]); 32 µg/mL (≈ 91.6 µM) in assay [3] (alone); 4 to 8 µg/mL (≈ 11.4 to 22.9 µM) in [4] (setting [21]); 4 to 8 µg/mL (≈ 11.4 to 22.9 µM) in assay [4] (LiF 5 mg/l). Besides, the MIC in assay [4] (setting [22]) is 16 to 32 µg/mL (≈ 45.8 to 91.6 µM); in assay [4] (alone), 16 to 32 µg/mL (≈ 45.8 to 91.6 µM); in assay [5] (setting [21]), 32 µg/mL (≈ 91.6 µM); in [5] (LiF 5 mg/l, resistant to ampicillin, 5 wild-type strains), 32 µg/mL (≈ 91.6 µM); in assay [5] (setting [22]) it was greater than 128 µg/mL; in assay [5] (alone, resistant to ampicillin, 5 wild-type strains), greater than 128 µg/mL. The MIC was 32 µg/mL (≈ 91.6 µM) in [6] (setting [21]); 64 µg/mL (≈ 183 µM) in [6] (LiF 1 mg/l, resistant to ampicillin, 10 strains); 64 µg/mL (≈ 183 µM) in assay [6] (LiF 6 mg/l, resistant to ampicillin, strains producing beta-lactamase); greater than 128 µg/mL in assay [6] (setting [22]); greater than 128 µg/mL in [6] (alone, resistant to ampicillin, 10 strains); greater than 128 µg/mL in [6] (alone, resistant to ampicillin, strains producing beta-lactamase). For the same molecule, the MIC in assay [7] (LiF 5 mg/l) was 64 µg/mL (≈ 183 µM); in [7] (alone), greater than 128 µg/mL.
For the molecule `CCN1CCN(C(=O)N[C@@H](C(=O)N[C@@H]2C(=O)N3C(C(=O)O)=C(CSc4nnnn4C)CS[C@H]23)c2ccc(O)cc2)C(=O)C1=O` [CEFOPERAZONE, cefoperazone], the MIC stood at 64 µg/mL in assay [8] (+ LiF 1 mg/l, strain lic R βLac^+ OXA); 32 µg/mL in [8] (+ LiF 1 mg/l, strain lic R βLac^+ PSE); 32 µg/mL in [8] (+ LiF 1 mg/l, strain lic R βLac^+ TEM); 64 µg/mL in [8] (+ LiF 1 mg/l, strain lic R βLac^+ cephalosporinase); 4 µg/mL in assay [8] (+ LiF 1 mg/l, strain lic S βLac^- (first column)); 16 µg/mL in assay [8] (+ LiF 1 mg/l, strain lic S βLac^- (second column)). Besides, the MIC came out at 64 µg/mL in [8] (alone, strain lic R βLac^+ OXA); 64 µg/mL in assay [8] (alone, strain lic R βLac^+ PSE); 32 µg/mL in assay [8] (alone, strain lic R βLac^+ TEM); 64 µg/mL in [8] (alone, strain lic R βLac^+ cephalosporinase); 8 µg/mL in assay [8] (alone, strain lic S βLac^- (first column)); 16 µg/mL in assay [8] (alone, strain lic S βLac^- (second column)). The “phenotype in presence of Fli” value in assay [9] is “the resistant phenotype was not changed”.
Regarding `C[C@H]1c2cccc(O)c2C(=O)C2=C(O)[C@]3(O)C(=O)C(C(N)=O)=C(O)[C@@H](N(C)C)[C@@H]3[C@@H](O)[C@@H]21` [DOXYCYCLINE, doxycycline], the MIC in assay [10] was 1000 µg/mL. The inhibition diameter is on record as 7 mm in assay [11] (J0, day before the first administration, healthy patient, plasma); 8-9 mm in assay [11] (J1, day of the first administration, 2 capsules each day, blood 3 hours after administration); 11-12 mm in assay [11] (J3, third day of administration, 2 capsules each day, blood 3 hours after administration).
Consider `CN(C)C1C(=O)C(C(N)=O)=C(O)C2(O)C(=O)C3=C(O)c4c(O)cccc4C(C)(O)C3CC12` (stereo not drawn) [TETRACYCLINE, tetracycline], for which the “MIC A/B” value in assay [12] is 4 mg/L. Further, the MIC in [13] is 32 µg/mL (≈ 72 µM); in assay [14] it was 512 µg/mL (≈ 1150 µM); in assay [15] (setting [23]), 4 to 8 µg/mL (≈ 9 to 18 µM); in assay [15] (read-out: 100% inhibitory concentration, in the presence of LiF 4 ppm), 2 to 4 µg/mL; in [16] (setting [23]) it was 0.5 µg/mL (≈ 1.13 µM); in assay [16] (read-out: 100% inhibitory concentration, in the presence of LiF 2 ppm), 0.25 µg/mL.
Regarding `CC1(C)S[C@@H]2[C@H](NC(=O)Cc3ccccc3)C(=O)N2[C@H]1C(=O)O` [penicilline group G], the “phenotype in presence of Fli” value in assay [17] is reported as “the insensible phenotype was not changed”.
As to POLYMIXIN B, the 100% inhibitory concentration was greater than 128 ppm in [18] (alone); 64 ppm in assay [18] (in the presence of LiF 8 ppm); greater than 128 ppm in assay [19] (alone); 64 ppm in assay [19] (in the presence of LiF 2 ppm); greater than 128 ppm in [20] (alone); 64 ppm in assay [20] (in the presence of LiF 2 ppm).
